This is an account of results in article PMC4066673 (Biochemistry, 2012).

By Ki is commonly meant a dissociation constant, usually derived from enzyme kinetics or from competition with a known ligand. Low readings indicate tighter binding, high ones weaker binding.

Assay [1] has as its target T1, hTHEM4 (Homo sapiens, UniProt Q5T1C6). The assay is described as follows: product inhibition of thioesterase activity. Format: biochemical.
Assay [2] deals with T1, hTHEM4. The assay is described as follows: substrate hydrolysed in the competitive inhibition assay. Format: biochemical.

T1 sequence (Q5T1C6 37-240): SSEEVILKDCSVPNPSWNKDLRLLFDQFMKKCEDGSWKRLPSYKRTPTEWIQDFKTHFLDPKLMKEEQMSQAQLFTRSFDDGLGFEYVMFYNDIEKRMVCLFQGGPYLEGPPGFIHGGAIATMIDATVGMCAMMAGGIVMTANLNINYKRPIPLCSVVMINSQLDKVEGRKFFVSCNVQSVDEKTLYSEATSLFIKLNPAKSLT

In turn, `CC(C)(COP(=O)(O)OP(=O)(O)OC[C@H]1O[C@@H](n2cnc3c(N)ncnc32)[C@H](O)[C@@H]1OP(=O)(O)O)[C@@H](O)C(=O)NCCC(=O)NCCS` [CoA] had an inhibitory constant (Ki) at hTHEM4 [1] of 81 ± 1 µM.

Consider `CCCCCCCCCC(=O)SCCNC(=O)CCNC(=O)[C@H](O)C(C)(C)COP(=O)(O)OP(=O)(O)OC[C@H]1O[C@@H](n2cnc3c(N)ncnc32)[C@H](O)[C@@H]1OP(=O)(O)O` [decanoyl-CoA], for which the “substrate hydrolysed in the competitive inhibition assay” value at hTHEM4 [2] was “competitive inhibitor of hTHEM4-catalyzed decanoyl-CoA hydrolysis”.
